Results as given in ChEMBL document CHEMBL5131550, “Application of Rapidly Accelerating Fibrosarcoma Protein Degraders in Drug Discovery” (ACS Med Chem Lett, 2022).

How the values were obtained:
Assay type in all cases: cell-based
[1] = target: T1, RAF proto-oncogene serine/threonine-protein kinase (Homo sapiens, UniProt P04049); experiment: Inhibition of RAF in human A-375 cells assessed as ERK phosphorylation at Thr202/Tyr204 residue incubated for 6 hrs by HTRF assay
[2] = target: T1, RAF proto-oncogene serine/threonine-protein kinase; experiment: Inhibition of RAF in human WM3629 cells assessed as ERK phosphorylation at Thr202/Tyr204 residue incubated for 6 hrs by HTRF assay
[3] = test system: Protein cereblon/Serine/threonine-protein kinase B-raf (Homo sapiens), P15056+Q96SW2 [G466V]; experiment: Protac activity at E3 ubiquitin-protein ligase/BRAF G466V mutant in human T-REx-293 cells assessed as maximal BRAF degradation incubated for 24 hrs by plate reader assay
[4] = target: Protein cereblon/Serine/threonine-protein kinase B-raf (Homo sapiens, UniProt P15056+Q96SW2, G466V); experiment: Protac activity at E3 ubiquitin-protein ligase/BRAF G466V mutant in human T-REx-293 cells assessed as BRAF degradation incubated for 24 hrs by plate reader assay
[5] = test system: Protein cereblon/Serine/threonine-protein kinase B-raf (Homo sapiens), P15056+Q96SW2 [V600E]; experiment: Protac activity at E3 ubiquitin-protein ligase/BRAF V600E mutant in human T-REx-293 cells assessed as maximal BRAF degradation incubated for 24 hrs by plate reader assay
[6] = target: Protein cereblon/Serine/threonine-protein kinase B-raf (Homo sapiens, UniProt P15056+Q96SW2, V600E); experiment: Protac activity at E3 ubiquitin-protein ligase/BRAF V600E mutant in human T-REx-293 cells assessed as BRAF degradation incubated for 24 hrs by plate reader assay
Chain of Protein cereblon/Serine/threonine-protein kinase B-raf (Homo sapiens, UniProt P15056+Q96SW2, V600E) (P15056 2-766 V600E limits assumed, stated change not applied): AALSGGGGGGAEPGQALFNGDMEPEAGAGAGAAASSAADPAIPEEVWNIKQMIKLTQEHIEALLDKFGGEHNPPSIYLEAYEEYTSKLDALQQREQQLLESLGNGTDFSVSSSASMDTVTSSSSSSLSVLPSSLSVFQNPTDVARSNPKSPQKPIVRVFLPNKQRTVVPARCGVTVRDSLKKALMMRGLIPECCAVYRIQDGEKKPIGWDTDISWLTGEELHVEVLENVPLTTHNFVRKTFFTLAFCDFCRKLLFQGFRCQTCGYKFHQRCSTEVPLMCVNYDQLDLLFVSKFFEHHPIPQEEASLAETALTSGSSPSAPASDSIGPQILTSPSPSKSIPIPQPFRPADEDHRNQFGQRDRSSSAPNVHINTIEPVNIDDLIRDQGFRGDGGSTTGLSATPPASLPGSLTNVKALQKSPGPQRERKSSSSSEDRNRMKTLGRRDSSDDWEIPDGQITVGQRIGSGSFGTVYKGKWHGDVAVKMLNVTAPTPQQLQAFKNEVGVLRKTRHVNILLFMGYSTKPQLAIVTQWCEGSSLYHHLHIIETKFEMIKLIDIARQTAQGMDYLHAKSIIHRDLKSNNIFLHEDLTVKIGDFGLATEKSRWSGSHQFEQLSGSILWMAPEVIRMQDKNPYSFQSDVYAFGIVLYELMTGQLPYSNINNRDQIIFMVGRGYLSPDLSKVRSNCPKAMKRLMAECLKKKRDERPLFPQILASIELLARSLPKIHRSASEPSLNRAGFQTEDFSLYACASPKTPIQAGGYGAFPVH
Chain of Protein cereblon/Serine/threonine-protein kinase B-raf (Homo sapiens, UniProt P15056+Q96SW2, V600E) (Q96SW2 whole entry, stated change not applied): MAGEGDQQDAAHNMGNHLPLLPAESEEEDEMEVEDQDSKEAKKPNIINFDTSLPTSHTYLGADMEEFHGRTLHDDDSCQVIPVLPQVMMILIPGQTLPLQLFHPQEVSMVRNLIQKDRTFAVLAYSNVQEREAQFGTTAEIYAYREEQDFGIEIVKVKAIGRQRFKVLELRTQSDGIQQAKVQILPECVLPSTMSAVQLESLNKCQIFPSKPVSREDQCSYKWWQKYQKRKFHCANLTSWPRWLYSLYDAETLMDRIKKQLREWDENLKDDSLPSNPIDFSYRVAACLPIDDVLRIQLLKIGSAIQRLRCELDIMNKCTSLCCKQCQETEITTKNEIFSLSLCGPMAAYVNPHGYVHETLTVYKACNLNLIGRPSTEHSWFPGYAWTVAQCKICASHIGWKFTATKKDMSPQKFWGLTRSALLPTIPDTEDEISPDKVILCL

T1 sequence (P04049 whole entry): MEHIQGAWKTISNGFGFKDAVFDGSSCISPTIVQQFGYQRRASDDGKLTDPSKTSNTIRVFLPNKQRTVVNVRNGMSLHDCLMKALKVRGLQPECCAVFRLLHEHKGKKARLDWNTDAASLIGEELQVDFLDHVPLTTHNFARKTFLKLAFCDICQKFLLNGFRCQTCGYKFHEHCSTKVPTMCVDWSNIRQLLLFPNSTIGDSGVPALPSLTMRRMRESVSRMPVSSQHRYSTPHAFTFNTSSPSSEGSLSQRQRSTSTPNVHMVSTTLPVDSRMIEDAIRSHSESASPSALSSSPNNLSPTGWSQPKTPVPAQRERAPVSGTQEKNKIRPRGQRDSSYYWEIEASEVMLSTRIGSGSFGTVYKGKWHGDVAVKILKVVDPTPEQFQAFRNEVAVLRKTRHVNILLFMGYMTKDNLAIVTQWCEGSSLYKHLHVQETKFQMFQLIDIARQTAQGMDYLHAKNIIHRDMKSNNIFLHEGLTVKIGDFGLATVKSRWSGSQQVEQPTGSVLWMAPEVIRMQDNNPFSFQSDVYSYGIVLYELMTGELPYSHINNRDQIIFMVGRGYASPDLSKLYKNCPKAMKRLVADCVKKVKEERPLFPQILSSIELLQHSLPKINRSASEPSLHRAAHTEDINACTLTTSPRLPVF

IC50 [1]	IC50 [2]	SMILES	Emax [3]	DC50 [4]	Emax [5]	DC50 [6]
100 nM	10 nM	Cc1ccc(NC(=O)N2CC[C@@H](CC(F)(F)F)C2)cc1-c1cnc(OCCN2CCN(c3ccc4c(c3)C(=O)N(C3CCC(=O)NC3=O)C4=O)CC2)c(N2CCOCC2)c1 (some centres not stated)				
1000 nM	10 nM	Cc1ncc(NC(=O)N2CC[C@@H](CC(F)(F)F)C2)cc1-c1cnc(OCCN2CCN(c3ccc4c(c3)C(=O)N(C3CCC(=O)NC3=O)C4=O)CC2)c(N2CCOCC2)c1 (some centres not stated)				
		O=C1CCC(N2Cc3cc(N4CCC(CN5CC6(CCN(c7ncc(-c8cnc9[nH]cc(C(=O)c%10c(F)ccc(NS(=O)(=O)N%11CC[C@@H](F)C%11)c%10F)c9c8)cn7)C6)C5)CC4)ccc3C2=O)C(=O)N1 (some centres not stated)	> 70%	1 nM	35%	≤ 5 nM
		COc1cc(N2CCC(CN3CCC4(CC3)CCN(c3ccc(-c5cnc6[nH]cc(C(=O)c7c(F)ccc(NS(=O)(=O)N8CC[C@@H](F)C8)c7F)c6c5)cc3)CC4)CC2)cc2c1C(=O)N(C1CCC(=O)NC1=O)C2 (some centres not stated)	35%	1 nM	35%	≤ 5 nM
